{"source": "patent US20240238398A1", "about": "“IMMUNOGENIC COMPOSITION” (GRIFFITH UNIVERSITY, priority 2021, published 2024)", "key": {"B. microti [1]": {"system": "B. microti", "test": "Assessment of chemically attenuated B. microti pRBCs in SCID mice", "type": "in vivo", "details": "10^6 B. microti pRBCs treated with 2 μM TF-A, intravenous, immunodeficient SCID mice", "method": "FIG. 5: Assessment of chemically attenuated B. microti pRBCs in BALB/c and SCID mice. Related to FIGS. 1 and 2. BALB/c and SCID mice (n=5/group) were injected intravenously with 10^6 B. microti parasitized red blood cells (pRBCs) that were chemically attenuated with 2 μM of Tafuramycin-A (TF-A). Control mice received pRBCs that were not treated with TF-A. A. Parasitemia was monitored by microscopy post challenge. B. Mice were assessed for signs of disease and were scored based on defined criteria listed on a clinical scoresheet. Data are expressed as mean±SEM.\nChemical attenuation of B. microti with Tafuramycin-A (TF-A) was conducted as described previously (Good et al., 2013). Blood from mice infected with B. microti (as a source of pRBCs) and from naïve mice (as a source of mRBCs) were collected into EDTA tubes. TF-A was diluted to a 20 μM final concentration in RPMI-1640 with glutamine and added to a 25 cm^2 vented tissue culture flask to give a final TF-A concentration of 2 μM, 200 nM or 20 nM as required. One hundred microlitres of blood containing B. microti pRBCs or mRBCs was added into each flask, as required. […] A cell count was performed using a haemocytometer, the immunizing dose calculated, and the blood was resuspended in the required volume of PBS for injection. […]"}, "B. microti [2]": {"system": "B. microti", "test": "In vivo assessment of chemically attenuated B. microti pRBCs in BALB/c mice", "details": "intravenous inoculation", "method": "FIG. 1: In vivo assessment of chemically attenuated B. microti pRBCs. A and B. To assess attenuation of B. microti parasitized red blood cells (pRBCs), BALB/c mice (n=5/group) were injected intravenously with 10^6 pRBCs treated with 2 μM, 200 nM or 20 nM of Tafuramycin-A (TF-A). Control mice received 10^6 untreated pRBCs. C and D. The impact of parasite dose on protection induced by a chemically attenuated whole parasite B. microti vaccine. BALB/c mice (n=5/group) were immunized intravenously on days 0, 14 and 28 with 10^4, 10^5 or 10^6 B. microti parasitized red blood cells (pRBCs) that were chemically attenuated with 2 μM of Tafuramycin-A (TF-A). Control mice received 10^6 TF-A treated normal mouse red blood cells (mRBCs). Mice were challenged with 10^6 B. microti pRBCs two weeks after the final immunization. (A and C: Parasitemias were monitored by microscopy post challenge. B and D: Mice were assessed for signs of disease and were scored based on defined criteria listed on a clinical scoresheet. Data are expressed as mean±SEM). […]\nChemical attenuation of B. microti with Tafuramycin-A (TF-A) was conducted as described previously (Good et al., 2013). […] A cell count was performed using a haemocytometer, the immunizing dose calculated, and the blood was resuspended in the required volume of PBS for injection. […]"}}}
{"smiles": "COc1cc2cc(C(=O)N3CC(CCl)c4c3cc(O)c3ccoc43)[nH]c2c(OC)c1OC", "note": "(stereo not shown) [TF-A, seco-iso-cyclopropylfurano[2,3-e]indoline-TMI]", "values": [{"measurement": "signs of clinical disease", "setting": "B. microti [1]", "result": "remained without signs of clinical disease"}, {"measurement": "time microscopically clear of parasites", "setting": "B. microti [1]", "result": 70, "unit": "days"}, {"measurement": "microscopically patent parasitemia and clinical signs of infection", "setting": "B. microti [2]; 10^6 B. microti pRBCs attenuated with 200 nM TF-A", "result": "did not develop microscopically patent parasitemia nor clinical signs of infection"}, {"measurement": "microscopically patent parasitemia and clinical signs of infection", "setting": "B. microti [2]; 10^6 B. microti pRBCs attenuated with 2 μM TF-A", "result": "did not develop microscopically patent parasitemia nor clinical signs of infection"}]}
